For assay [1], the target named is T1, Polyunsaturated fatty acid 5-lipoxygenase (Homo sapiens, UniProt P09917).
T1 sequence (P09917 whole entry): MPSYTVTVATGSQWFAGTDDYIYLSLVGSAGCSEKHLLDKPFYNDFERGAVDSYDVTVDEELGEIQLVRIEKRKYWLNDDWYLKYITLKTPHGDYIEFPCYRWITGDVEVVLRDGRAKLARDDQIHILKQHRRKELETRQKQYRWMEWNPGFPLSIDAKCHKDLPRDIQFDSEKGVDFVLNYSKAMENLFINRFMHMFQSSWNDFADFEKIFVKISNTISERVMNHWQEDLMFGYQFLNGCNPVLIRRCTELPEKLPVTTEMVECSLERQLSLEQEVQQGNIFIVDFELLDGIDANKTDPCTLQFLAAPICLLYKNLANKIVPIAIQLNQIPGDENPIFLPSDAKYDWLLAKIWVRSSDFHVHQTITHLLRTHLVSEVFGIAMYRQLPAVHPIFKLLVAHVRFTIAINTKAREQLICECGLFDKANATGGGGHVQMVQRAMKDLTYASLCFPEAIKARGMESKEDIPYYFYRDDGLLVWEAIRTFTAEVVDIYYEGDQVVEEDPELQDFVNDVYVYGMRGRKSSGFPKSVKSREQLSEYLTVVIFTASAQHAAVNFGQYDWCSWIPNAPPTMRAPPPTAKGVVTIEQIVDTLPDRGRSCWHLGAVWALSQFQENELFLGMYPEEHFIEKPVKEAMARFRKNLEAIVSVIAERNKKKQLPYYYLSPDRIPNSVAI
Put plainly: Inhibition of 5-LOX (unknown origin).

Assay [2] has as its target T2, Prostaglandin G/H synthase 2 (Homo sapiens, UniProt P35354).
T2 sequence (P35354 whole entry): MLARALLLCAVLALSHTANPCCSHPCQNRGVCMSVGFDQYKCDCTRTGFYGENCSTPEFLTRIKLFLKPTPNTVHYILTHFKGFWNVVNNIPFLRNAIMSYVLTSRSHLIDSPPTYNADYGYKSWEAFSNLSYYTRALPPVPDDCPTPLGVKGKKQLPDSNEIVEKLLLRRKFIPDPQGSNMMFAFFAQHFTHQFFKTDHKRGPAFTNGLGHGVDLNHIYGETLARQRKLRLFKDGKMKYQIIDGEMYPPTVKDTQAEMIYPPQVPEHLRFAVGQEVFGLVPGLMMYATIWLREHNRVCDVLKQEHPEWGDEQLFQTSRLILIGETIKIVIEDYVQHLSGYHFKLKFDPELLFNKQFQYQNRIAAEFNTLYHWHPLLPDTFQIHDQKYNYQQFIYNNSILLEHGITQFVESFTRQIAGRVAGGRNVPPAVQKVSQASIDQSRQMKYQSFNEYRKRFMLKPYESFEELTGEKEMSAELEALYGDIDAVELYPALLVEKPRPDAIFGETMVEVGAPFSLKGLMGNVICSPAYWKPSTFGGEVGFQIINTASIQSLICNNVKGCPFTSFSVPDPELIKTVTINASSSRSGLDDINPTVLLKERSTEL
The experiment in a line: Inhibition of COX2 (unknown origin).

In turn, `Cc1cc(Nc2ncc(-c3ccc(F)cc3)o2)cc(C)c1O` had an IC50 in assay [1] of 0.065 to 1.25 µM.
On the same count and under the same terms, then `O=C(O)c1noc(-c2ccc(OCc3ccc4ccccc4n3)cc2)c1-c1ccc(Cl)cc1`, with 0.065 to 1.25 µM.
Consider `CS(=O)(=O)c1ccc(-c2nc(SCCN(O)C(N)=O)nn2-c2ccc(Br)cc2)cc1`, for which the IC50 in assay [1] turned out to be 0.85 µM; in assay [2], 0.15 µM.
The compound `CC[C@](O)(c1nnc(NCc2ccc3c(-c4ccc(F)cc4)cc(=O)oc3c2)o1)C(F)(F)F` [SETILEUTON] returned an IC50 in assay [1] of 0.065 to 1.25 µM.

For orientation: IC50 means the concentration that inhibits the measured activity by half.

Values taken from ChEMBL document CHEMBL4152186, “Recent advances in the search for novel 5-lipoxygenase inhibitors for the treatment of asthma” (Eur J Med Chem, 2018).
